Source: patent US6974816B2, “Combination for the treatment of endothelial damage” (Licentia Ltd., priority 2001, dated 2005)
Like-named read-outs stand apart in the source and are kept apart here.

What was measured:
[1] = test system: CD31-positive cells (endothelium) of the transfected vessel segment; test: Luminal endothelial cell coverage (CD31-positive cells) in transverse vessel sections; type: in vivo, New Zealand White rabbits
Description: Animals from the 8 groups are also analyzed with regard to luminal endothelial cell coverage from transverse vessel sections. This variable is determined by analysis of the percentage of the luminal surface that is covered by CD31-positive cells (CD31 is an endothelium-specific antibody from DAKO).
To investigate the mechanism underlying the observed beneficial effect of the combination therapy, the extent of endothelialization and the number of smooth muscle cells at the transfected vessel segment are analyzed (see Table 1). At the three-week time point, no difference in endothelial cell coverage is observed between the groups, although a trend towards an increased endothelial cell coverage in the combination group is seen (P=0.088). However, at the six-week time point, both groups that have received VEGF-C gene transfer display an increase in endotheilialization as compared to the control group. […] As shown in Table 4 (see below), the cell number is reduced by 52% (P<0.05) in the combination group as compared to control animal.
Three hours before euthanasia, animals receive an i.v. injection of 50 mg 5-bromo-2′-deoxyuridine (BrdU; Zymed Laboratories, San Francisco, Calif., USA) dissolved in 40% ethanol. After euthanasia, the transferred vessel segment is removed, flushed gently with saline, and divided into 4 parts of equal length. […]

[2] = for Plasma STI571 concentration, day 3 peak: 10 mg/kg/d oral in two daily doses; for Plasma STI571 concentration, day 3 peak / Plasma STI571 concentration, day 10 peak / Plasma STI571 concentration, day 21 peak: 2 h after drug delivery; for Plasma STI571 concentration, day 42: 3 weeks after last dose; for Plasma STI571 concentration, day 3 nadir / Plasma STI571 concentration, day 10 nadir / Plasma STI571 concentration, day 21 nadir: immediately before next administration
Description: The drug, or control (=sterile water) is administered with an oro-gastric sond on trained, unsedated animals 1 h before the gene transfer and is repeated every 12 h thereafter for the following three weeks.
Blood sampling, […] with catheterizations or euthanasia, is performed under slight Fluanisone/Fentanyl sedation. […] The specimen is stored in heparinized tubes shielded from light and plasma is isolated by centrifugation within 2 h and stored at −70° C. STI concentration is determined by high-performance liquid chromatography
For HPLC, plasma proteins are precipitated by the addition of an equal volume of acetonitrile. After 20 to 30 min at room temperature, the precipitated proteins are removed by centrifugation (10,000 g, 5 min) and the supernatants are analyzed by reversed-phase HPLC.
HPLC is performed on Merck-Hitachi LaChrom® equipment. 100 μl of the supernatants are injected onto a Nucleosil® 100-5 C18 column (C-18 modified silica Gel, Macherey & Nagel) protected by a 20 mm guard column of the same material. The sample is eluted with a gradient of acetonitrile in water at a flow rate of 1 ml/min; after 5 min at 10% v/v acetonitrile, the concentration of acetonitrile is increased to 75% v/v over a period of 15 min. The column is prepared for the next sample by washing for 5 min with 75% v/v acetonitrile, returning to 10% acetonitrile over 5 min and 5 min reequilibration. The mobile phase contains 0.05% v/v trifluoroacetic acid. The eluent is monitored using UV absorbance at a wavelength of 265 nm. […] The concentration of the compound is determined by the external standard method using peak heights. […] The calibration standards are processed as above.

[3] = test system: intimal and medial smooth muscle cells; test: BrdU labelling of dividing smooth muscle cells; type: in vivo, New Zealand White rabbits; conditions: 6-week endpoint; mean ± SEM
Description: (§1) Three hours before euthanasia, animals receive an i.v. injection of 50 mg 5-bromo-2′-deoxyuridine (BrdU; Zymed Laboratories, San Francisco, Calif., USA) dissolved in 40% ethanol. After euthanasia, the transferred vessel segment is removed, flushed gently with saline, and divided into 4 parts of equal length. The proximal part is snap-frozen in liquid nitrogen and stored at −70° C. The next part is immersion-fixed in 4% paraformaldehyde/15% sucrose (pH 7.4) for 4 h, rinsed in 15% sucrose (pH 7.4) and embedded in paraffin. The 2nd most distal part is fixed in 70% ethanol overnight and embedded in paraffin. The distal part is fixed in […]/PBS (pH 7.4) for 10 minutes, rinsed in PBS, embedded in OCT compound (Miles) and stored at −70° C. The distal segments from 3 week end-point animals are stained for β-galactosidase activity in X-Gal staining solution at +37° C. for 16 h, followed by fixation similar to that for the second segment. Paraffin sections are used for the detection of endothelium (CD31, DAKO, 1:50), smooth muscle cells (HHF, DAKO, 1:50), macrophages (RAM-11, DAKO, 1:50), and BrdU positive cells (Bu20a, DAKO, 1:50). Controls for immunostainings include incubations with class- and species-matched immunoglobulins and omission of primary antibodies. Morphometry is performed with Leica Q5001lW software with a stereomicroscope connected to a digital camera (Leica).

[4] = test system: intimal and medial smooth muscle cells; test: Intimal and medial smooth muscle cell number; type: in vivo, New Zealand White rabbits; conditions: 6-week endpoint; mean ± SEM
Description: as §1

[5] = rabbit, in vivo
Description: (§2) The cohort groups are also characterized with regard to animal weights, weight changes, extent of balloon injury (IEL damage), blood lipid profiles and basic hematologic parameters.

[6] = rabbit, in vivo; remark: listed apart in the source
Description: as §2
(§3) Blood samples are drawn for complete blood count at the time of euthanasia from randomly selected animals (n=3/group) in the 3-week endpoint cohort.

arterial intima = conditions: after re-injury of the arterial intima; cited from earlier work
[7] = Complete blood count (hematological parameters); conditions: 3-week endpoint; mean ± SEM
Description: as §2, §3

[8] = test system: left anterior descending coronary artery injured by overdilatation and denudation; conditions: after PTCA, versus controls without RPR101511A; cited from earlier work

## Cc1ccc(NC(=O)c2ccc(CN3CCN(C)CC3)cc2)cc1Nc1nccc(-c2cccnc2)n1 [STI571, N-{5-[4-(4-methyl-piperazino-methyl)-benzoylamido]-2-methylphenyl}-4-(3-pyridyl)-2-pyrimidine-amine]
[1]; 3-week endpoint
  CD31 positive cell coverage (% of luminal circumference), mean: 33.7 % of luminal circumference
[1]; 6-week endpoint
  CD31 positive cell coverage (% of luminal circumference), mean: 60.2 % of luminal circumference
[2]; LacZ transfected animals
  Plasma STI571 concentration, day 3 peak: 10.27 ± 1.28 µM
  Plasma STI571 concentration, day 42: 0.04 ± 0.01 µM
  Plasma STI571 concentration, day 10 peak: 16.63 ± 1.99 µM
  Plasma STI571 concentration, day 21 peak: 13.18 ± 1.65 µM
  Plasma STI571 concentration, day 3 nadir: 3.57 ± 0.74 µM
  Plasma STI571 concentration, day 10 nadir: 5.16 ± 1.89 µM
  Plasma STI571 concentration, day 21 nadir: 3.86 ± 1.02 µM
[2]; VEGF-C transfected animals
  Plasma STI571 concentration, day 3 peak: 11.08 ± 1.10 µM
  Plasma STI571 concentration, day 42: 0.05 ± 0.01 µM
  Plasma STI571 concentration, day 10 peak: 14.26 ± 1.26 µM
  Plasma STI571 concentration, day 21 peak: 13.58 ± 1.95 µM
  Plasma STI571 concentration, day 3 nadir: 3.11 ± 1.13 µM
  Plasma STI571 concentration, day 10 nadir: 2.41 ± 0.43 µM
  Plasma STI571 concentration, day 21 nadir: 2.95 ± 0.90 µM
[3]
  BrdU positive SMC (%), intima: 0.57 ± 0.13%
  BrdU positive SMC (%), media: 0.39 ± 0.08%
[4]
  Number of SMC, intima: 1471 ± 287
  Number of SMC, media: 2403 ± 381
[5]
  weight: 2462 ± 90 g
[6]
  Bands (%): 0 ± 0%
  Hct (%): 31 ± 1.2%
  MCH: 21 ± 0.8 pg
  MCV: 64 ± 2.0 fL
  basophiles (%): 0 ± 0%
  eosinophiles (%): 3.4 ± 1.4%
  lymphocytes (%): 67.4 ± 4.1%
  monocytes (%): 2.4 ± 0.7%
  neutrophils (%): 26.8 ± 2.7%
Arterial intima
  smooth muscle proliferation and lesion formation: inhibit smooth muscle proliferation and leasion formation
[7]
  Hb: 103 ± 3.6 g/L
  RBC count (× 10^12/l): 4.9 ± 0.2 × 10^12/l
  WBC count (× 10^9/l): 4.6 ± 0.6 × 10^9/l

## COc1cc2ncc(-c3ccsc3)nc2cc1OC.Cl [RPR101511A, 6,7-di-methoxy-2-thiophen-3-yl-quinoxaline hydrochloride]
[8]
  total intima/media ratio: significant decrease
